According to patent publication US20140038953A1, “COMPOSITIONS AND METHODS FOR CARDIOVASCULAR DISEASE” (THE GENERAL HOSPITAL CORPORATION, priority 2011, published 2014):
Entries after “also recorded” stand apart in the source; their conditions may differ. Marks after values point to notes of the source that are not given here.

Key:
Format in all cases: in vivo
[1] = tested on: LDLR−/− mice; assay: Blood biochemical analysis in LDLR−/− mice on high fat diet
Description: Female mice deficient for the low density lipoprotein receptor (LDLR^−/−) on a C57BL/6 background with appropriate control mice mice (eight weeks of age) were obtained from Jackson Laboratories (Bar Harbor, Me.). Animals were fed a western style diet formulated to match Paigen's Atherogenic Rodent Diet (42% fat, 0.15% cholesterol, 19.5% casein; Research Diets Inc., New Brunswick, N.J.).
[…], white blood count, hematocrit, hemoglobin, and platelets were analyzed using a HemaTrue™ Hematology Analyzer (Heska AG, Switzerland). Urea nitrogen, glucose, alkaline phosphatase, total protein, alanine transaminase and creatinine were determined using a Spotchem EZ SP-4430 POCT analyzer (Arkray, Inc., Kyoto, Japan). HDL and LDL levels were determined using a fluorescence quantification kit (K613-100, Biovision, Mountain View, Calif.)

[2] = tested on: LDLR−/− mice; assay: Vascular inflammation / macrophage activity in LDLR−/− mice (Prosense, MAC2); details: for vascular inflammation / macrophage activity (Prosense): high fat diet 20 weeks, 2.5 mg/kg ip daily, vs vehicle, 2.5 mg/kg
Description: Fluorescence reflectance imaging (FRI), was performed as previously described. […] After dissection, aortae were subjected to ex vivo near infrared fluorescence reflectance imaging using an Odyssey Imaging System (LI-COR Biotechnology, Lincoln, Nebr.), with integrated signal intensities determined for regions of interest using software version 3.0.16.
(§1) For immunofluorescence, frozen sections were post-fixed in cold methanol and incubated with polyclonal antibodies specific for p-SMAD1/5/8 (1:100, Cell Signaling, Danvers, Mass.) or MAC2 (1:100, Cedarlane, Burlington, ON) followed by FITC labeled Goat Anti-Rabbit IgG or Rhodamine Goat Anti-Rat IgG (both Jackson Immuno Research, West Grove, Pa.), respectively.
Mice were injected with Osteosense (to label sites of bone-forming activity via osteoblast binding of this probe) and Prosense (to label sites of macrophage-mediated inflammation). Aortae were explanted and subjected to fluorescence reflectance imaging (LICOR Odyssey imager).
Inflammatory activity, a surrogate of atherosclerotic plaque burden, was assessed by near-IR fluorescence of Prosense (fluor-cathepsin substrate) at […]. Ten individual mice were used in each treatment group.
Inflammatory activity, a surrogate of atherosclerotic plaque burden, was assessed by integrated intensity of near-IR fluorescence of Prosense (fluor-cathepsin substrate) at […].
Each treatment group consisted of a total of 10 mice. After 4 weeks of atherogenic diet and drug or vehicle treatment, the animals were sacrificed. The frontal plane sections of the aortic arch were dissected out and stained for macrophage marker (MAC2) and counterstained with DAPI.

[3] = tested on: phosphorylated SMADs 1/5/8; assay: p-SMAD1/5/8 immunofluorescence in atherosclerotic lesions of LDLR−/− mice
From the text: BMP signaling activity in the nascent lesions of LDLR^−/− mice was characterized. Phosphorylated BMP-responsive SMADs (p-SMAD1/5/8), effectors of the BMP signaling pathway that are retained in the nuclei of activated cells, were detected by immunofluorescence in endothelial cells, macrophages, and the media of atheromatous lesions (FIG. 1b), particularly in the lesser curvature of the aorta, beginning three weeks on HFD. Activation of BMP signaling persisted for at least 20 weeks and was abundant near calcific lesions (FIG. 3). To confirm that the activation of SMAD1/5/8 observed in the vessels of LDLR^−/− mice was attributable to BMP signaling, a BMP type I receptor inhibitor, compound 13, was administered (2.5 mg/kg ip daily for five days) to LDLR^−/− mice that had received HFD for 6 weeks.
as §1
LDLr−/− mice were started on a hypercholesterolemic diet at 8 weeks, and treated with either vehicle (saline) or a BMP inhibitor positive control compound (compound 13, 2.5 mg/kg/d intraperitoneally) for an additional 8 weeks. Aortae were harvested and fixed, and then stained with antibodies sensitive for the BMP effector molecule, phosphorylated-SMAD1/5/8, and counterstained with DAPI nuclear stain. Within 6-8 weeks of being subjected to a high fat diet, LDR−/− mice developed fatty lesions in the intima of the aortic root, based on traditional histochemical staining techniques (data not shown). […] Thus, the cellular components of lipid rich plaques, predominantly macrophage-derived foam cells, had evidence of intense activation of the BMP signaling pathway. […]

[4] = LDLR−/− mice, HFD 20 weeks, in words
[5] = female LDLR−/− mice, high fat diet 6 weeks, compound 13 2.5 mg/kg ip daily, ALK3-Fc 2 mg/kg ip every other day, mean ± SEM
[6] = female LDLR−/− mice, high fat diet 20 weeks, 2.5 mg/kg ip daily, mean ± SEM
[7] = high fat diet and treatment 6 weeks, compound 13 2.5 mg/kg ip daily, ALK3-Fc 2 mg/kg ip every other day

c1ccc2c(-c3cnn4cc(-c5ccc(N6CCNCC6)cc5)cnc34)ccnc2c1 [Compound 13, 4-[6-(4-piperazin-1-ylphenyl)pyrazolo[1,5-a]pyrimidin-3-yl]quinoline]
serum alanine transaminase (ALT) levels vs vehicle ([1]; LDLR−/− mice on HFD, in words): reduced | serum alkaline phosphatase (ALP) levels vs vehicle ([1]; LDLR−/− mice on HFD, in words): reduced | HDL cholesterol levels vs vehicle [1, 4]: not altered | serum LDL cholesterol levels vs vehicle [1, 4]: lower serum LDL cholesterol levels | total cholesterol levels vs vehicle [1, 4]: reduced total cholesterol levels | serum LDL cholesterol levels vs vehicle ([1]; LDLR−/− mice, HFD 20 weeks, in words, listed as compound 13): reduced total cholesterol levels and LDL levels | Alanine transaminase [1, 5]: 233 ± 56 IU/L | Alkaline phosphatase [1, 5]: 112 ± 20 IU/L | Blood urea nitrogen [1, 5]: 24 ± 2 mg/dL | Cholesterol [1, 5]: 1553 ± 77*^,§ mg/dl | Creatinine [1, 5]: 0.5 ± 0.1 mg/dL | Glucose [1, 5]: 259 ± 20 mg/dL | Hemoglobin [1, 5]: 12.9 ± 1.5 g/dL | Total protein [1, 5]: 5.1 ± 0.1 g/dL | Triglycerides [1, 5]: 112 ± 15 mg/dL | Alanine transaminase [1, 6]: 130 ± 21‘ IU/L | Alkaline phosphatase [1, 6]: 84 ± 11 IU/L | Blood urea nitrogen [1, 6]: 25 ± 2 mg/dL | Cholesterol [1, 6]: 1401 ± 87 mg/dL | Creatinine [1, 6]: 0.4 ± 0.0 mg/dL | Glucose [1, 6]: 230 ± 19 mg/dL | HDL [1, 6]: 73.8 ± 26.5 mg/dL | Hemoglobin [1, 6]: 12.9 ± 0.8 g/dL | LDL [1, 6]: 1166.3 ± 257.3 mg/dL | Total protein [1, 6]: 4.3 ± 0.4 g/dL | Triglycerides [1, 6]: 135 ± 16 mg/dL | MAC2 staining of aortic arch ([2]; atherogenic diet and treatment 4 weeks, compound 13 2.5 mg/kg IP daily, ALK3-Fc 2 mg/kg IP every other day): decreased staining for MAC2 | vascular inflammation / macrophage activity (Prosense) [2]: marked reduction in vascular inflammation; also recorded: severely diminished evidence of macrophage activity | vascular inflammation / macrophage activity (Prosense) ([2]; listed as BMP inhibitor positive control compound): can reduce vascular calcification and vascular inflammation | foam cell accumulation / macrophage burden (MAC2) [2, 7]: inhibited foam cell accumulation | macrophage / cathepsin activity in aorta (Prosense) [2, 7]: as did treatment with compound 13; also recorded: significantly reduced; also recorded: significantly inhibited | p-SMAD1/5/8 within atherosclerotic lesions ([3]; LDLR−/− mice on high fat diet 6 weeks, treated five days, compound 13 2.5 mg/kg ip daily, ALK3-Fc 2 mg/kg ip every other day): suppressed phosphorylation of SMADs 1/5/8; also recorded: markedly diminished the detection of p-SMAD1/5/8 | p-SMAD1/5/8 staining in aorta ([3]; LDLR−/− mice treated during 6 weeks of high fat diet, compound 13 2.5 mg/kg ip daily, ALK3-Fc every other day, 2.5 mg/kg): decreased staining for phosphorylated SMAD1/5/8 | phosphorylated-SMAD1/5/8 staining in atheroma ([3]; LDLr−/− mice, hypercholesterolemic diet and treatment 8 weeks, 2.5 mg/kg/d ip): greatly diminished
